# Experimental data as given in patent US5104859A, “Continuous administration of adenosine to reduce pulmonary vascular resistance” (priority 1990, dated 1992).
# “Also recorded” adds a separate entry of the source.
# Assays:
# [1] = system: central hemodynamics; assay: Per cent change of hemodynamics: adenosine, SNP and TNG induced controlled hypotension during cerebral aneurysm surgery; assay type: in vivo, human
# Method: One hour before the operation the patients were premedicated orally with diazepam (10-20 mg.) Atropine (0.5 mg) and droperidol (0.1 mg. per kg.) were given intravenously before induction of anesthesia. Induction was started with thiopental (5 mg. per kg) followed by phenoperidine (1-2 mg), a synthetic opiate with pharmacodymanics resembling fentanyl but with a longer duration of action and 1/10 of its analgesic potency.
# Pancuronium bromide (0.1 mg per kg) was given to facilitate endotracheal intubation. Anesthesia was maintained by supplementary doses of phenoperidine and droperidol, as required. […] Phenoperidine was supplemented regularly to prevent the blood pressure from exceeding the preanesthetic level (approx. 1 mg/30-60 min). Controlled hyperventilation was employed with a humidified gas mixture of 60% N2 O in oxygen to maintain PaCO2 values at approximately 30 mmHg (±1.5/SEM). Mannitol (1-1.5 g. per kg) was given routinely at the start of the operation (e.g., 1-2 hours prior to the controlled hypotension). The patients were operated on in the horizontal supine position.
# A 1.2-mm plastic cannula was introduced into the left radial artery to monitor systemic arterial blood pressure (MABP) and collect arterial blood. A balloon-tipped, flow-directed, quadruple lumen Swan-Ganz catheter (Model 93A-831-7.5 F, VIP) was inserted percutaneously via the left basilic vein, and its correct position in the pulmonary artery was determined by pressure tracings. The catheter was used for the monitoring of mean right atrial pressure (RAP), mean pulmonary artery pressure (PAP), and mean pulmonary capillary wedge pressure (PCWP) for the determination of cardiac output and collection of mixed venous blood and for the infusion of adenosine. Another plastic cannula was introduced percutaneously, in a retrograde direction, into the right jugular bulb for the collection of blood. The correct position was verified by x-ray.
# The ECG was monitored with a standard chest (V5) lead. Heart rate was determined from the R-R interval. Blood pressures were measured by transducers placed at the midthoracic level. Cardiac output (QT) was determined in triplicate according to the thermodilution technique with a cardiac output computer (Edwards Lab, model 9510). Isotonic glucose, 10 ml at 1° C., was used as a thermal indicator. The ECG, heart rate, blood pressures, and thermodilution curves were recorded on a Grass® polygraph.
# The infusion was started at a rate of 0.01 mg. per kg. per minute, which was doubled at 15 second intervals until the desired MABP level of 40-50 mmHg was reached. […] Serum creatinine was determined before and on two consecutive days after operation. The standard ECG was recorded the day before and the day after operation.
# Subsequent to the tests described above, a 20 mM solution of adenosine in isotonic saline was administered to 50 surgical patients employing techniques similar to those described, except that pretreatment with dipyridamole was omitted.
# [2] = system: mean arterial blood pressure; settings: dogs, cited from earlier work
# [3] = system: oxygen consumption and lactate; assay: Oxygen contents, oxygen consumption and lactate during controlled hypotension; assay type: in vivo, human
# Method: The correct position was verified by x-ray.
# The hemoglobin concentration was determined spectrophotometrically. […] Scand., 120: 171-76 (1984). […] (London), 313: 351-67 (1981). […] Arterial levels of dipyridamole were determined by HPLC. J. Chromatogr., 162: 98-103 (1979). […] Scand. Clin. Lab. Invest., 27:15-19 (1971).
# The mean hypotensive period was 32±8 min.
# Oxygen content was derived from the formula SO2*× 1.34×Hb+PO2× […]. Foex et al., Br. J. Anesth., 42: 803-4 (1970). The arteriovenous oxygen content difference (AVDO2) was determined and used to calculate total oxygen consumption (VO2) as the product of AVDO2 and QT. *SO2 =Oxygen saturation.
# Oxygen contents, consumptions and lactate concentrations in nine patients before, during and 30 minutes after controlled hypotension are summarized in Table III.
# [4] = Plasma adenosine and metabolite concentrations during cardiopulmonary bypass (HPLC); settings: in vivo; for concentration: human, iv
# Method: In six cases the plasma adenosine levels were determined by high performance liquid chromatography (HPLC) (Fredholm and Sollevi, J. Physiol. (London), 313: 351-67 (1981) in arterial and in venous (venous lines to the oxygenator) blood. The adenosine metabolites inosine, hypoxanthine and uric acid were also determined by HPLC. The samples were collected as previously described (Sollevi, Acta. Physiol. Scand., 121: 165-72 (1984) at the intervals of 10, 20, 40 and 80 minutes during CPB and 20 minutes after CPB.
# Statistical significance (controls v. adenosine group) was determinted with Student's t-test for unpaired data. For significance within the groups the Wilcoxon Rank Sum test was used. p […] 0.05 was regarded as significant.
# [5] = system: myocardial blood flow; settings: 0.05 to about 0.1 mg/kg/min
# From the text: Patients requiring abdominal vascular surgery, such as surgery for an aortic aneurysm, frequently also suffer from ischemic heart disease, or insufficient blood flow to the heart tissue, which may present undesirable complications in such surgery.
# For such application, the rate of adenosine administration should be such that there is no more than a 10-20 per cent reduction in blood pressure.
# [6] = Control 2, 30 min after hypotension
structure (smiles),measurement,setting,value
Nc1ncnc2c1ncn2[C@@H]1O[C@H](CO)[C@@H](O)[C@H]1O [adenosine],"HR, change from control","[1]; Table IV, n = 10",+9 Per Cent from Control
same,"MABP, change from control","[1]; Table IV, n = 10",-43 Per Cent from Control
same,"PAP, change from control","[1]; Table IV, n = 10",+15 Per Cent from Control
same,"PCWP, change from control","[1]; Table IV, n = 10",+14 Per Cent from Control
same,"PVR, change from control","[1]; Table IV, n = 10",-15 Per Cent from Control
same,"QT (cardiac output), change from control","[1]; Table IV, n = 10",+44 Per Cent from Control
same,"RAP, change from control","[1]; Table IV, n = 10",+6 Per Cent from Control
same,"SVR, change from control","[1]; Table IV, n = 10",-61 Per Cent from Control
same,oxygen tissue pressures vs nitroprusside,[1]; controlled hypotension,better preserves oxygen tissue pressures
same,mean arterial pressure with adenosine after dipyridamole,[2]; 50 ug/kg/minute adenosine,40 mm/Hg
same,adenosine dose required for induction of hypotension without dipyridamole,"[2]; pilot study, as much as",5 to 10 mg/kg/min
same,decrease in AVDO2,[3],37±5%
same,decrease in cerebral AVDO2,[3],37±13%
same,decrease of VO2,[3],13±4%
same,Arterial lactate concentration (La),[3]; [6],1.82 ± 0.20 mmol per liter
same,Arterial oxygen tension (PaO2),[3]; [6],93.0 ± 5.2 mmHg
same,Jugular arteriovenous lactate content difference (AVDj La),[3]; [6],-0.06 ± 0.04 mmol per liter
same,Jugular arteriovenous oxygen content difference (AVDj O2),[3]; [6],74.9 ± 7.7 ml. per liter
same,Total arteriovenous oxygen content difference (AVDT O2),[3]; [6],46.8 ± 3.2 ml per liter
same,Total oxygen consumption (VT O2),[3]; [6],235 ± 16 ml per mm.
same,arterial lactate concentration,[3]; during / after hypotension,not affected; also recorded: minor increase
same,Arterial lactate concentration (La),[3]; during adenosine,1.73 ± 0.20 mmol per liter
same,Arterial oxygen tension (PaO2),[3]; during adenosine,97.5 ± 9.0 mmHg
same,Jugular arteriovenous lactate content difference (AVDj La),[3]; during adenosine,-0.05 ± 0.05 mmol per liter
same,Jugular arteriovenous oxygen content difference (AVDj O2),[3]; during adenosine,58.1 ± 14.1 ml. per liter
same,Total arteriovenous oxygen content difference (AVDT O2),[3]; during adenosine,29.3 ± 2.5 ml per liter
same,Total oxygen consumption (VT O2),[3]; during adenosine,193 ± 16 ml per mm.
same,arterial oxygen tension,[3]; during hypotension,remained unchanged
same,arterio-jugular lactate content difference,[3]; during hypotension,unaltered
same,concentration,[4],2000 to 10000 nM
same,concentration,[4]; 20 min,400 ± 100 nM
same,Arterial concentration,[4],0.3 ± 0.1 µM
same,arterial levels,[4],approximately doubled
same,increase of cardiac output,[5],10 to 20%
same,reduction of blood pressure,[5],10 to 20 per cent
same,oxygen consumption,[5]; words,without change in oxygen consumption
